Test results reported in patent publication US9289509B2, “Uses of immunoconjugates targeting CD138” (Biotest AG, priority 2009, dated 2016).

Tests used:
[1] = cited from earlier work
[2] = tested on: MOLP-8 human multiple myeloma xenografts; test: MOLP-8 xenograft in CB.17 SCID mice, single bolus iv (Xenograft Mouse Experiments A, Part I); assay type: in vivo; conditions: nBT062 […], all others 250 μg/kg (maytansinoid)
Procedure: The conjugates were evaluated in a CD138-positive xenograft model (MOLP-8) of human multiple myeloma in severe combined immunodeficient (SCID) mice.
In these mice, subcutaneous tumors were established (female CB.17 SCID mice) by inoculation with MOLP-8 cell suspensions. Treatment with a single bolus intravenous injection was conducted when tumor volumes reached an average 113 mm^3. Changes in tumor volume and body weight were monitored twice per week.
Each mouse was inoculated with 1×10^7 MOLP-8 cells subcutaneously into the area under the right shoulder. The total volume was 0.2 ml per mouse, in which the ratio of serum-free medium to matrigel (BD Bioscience, Bedford, Mass.) was 1/1 (v/v). Prior to treatment, the xenograft tumors were monitored daily and were allowed to become established.
Eleven days after tumor cell inoculation, 42 mice were selected based on tumor volumes and body weights. […] The forty-two mice were randomly divided into seven groups (A-G) of six animals each based on tumor volume.
Each of six mice in Group A received 200 μl of PBS as vehicle control.
All agents were intravenously administered as a single bolus injection through a lateral tail vein with a 1 ml syringe fitted with a 27 gauge, ½ inch needle.

RPMI 8226 = test: Combination with BT062 in cell lines (Chou and Talalay median effect analysis); assay type: cell-based; conditions: RPMI 8226 cells
Procedure: Combination studies in xenograph mouse models were preceded by studies in cell lines. […] Here, IC50 values for the cytotoxic effects for each drug and each cell line are calculated, and then IC50 ratios for each drug pair. The cells were then exposed to dilution series of either these drug mixtures, or the drugs alone. Experimental data were analyzed using the CompuSyn software (ComboSyn, Inc., Paramus, N.J.). Combination Indexes (CI) for each independent experiment were calculated and reported separately. In the analysis, CI less than 1, equal to 1 and more than 1 indicates synergy, additivity and antagonism, respectively. According to the classification of T. C.

MOLP8 = test: as above; assay type: cell-based, human; conditions: MOLP8 cells
[3] = tested on: MOLP8 multiple myeloma cells; test: MOLP8 xenograft: BT062 and VELCADE combination therapy; assay type: in vivo, mouse; conditions: for Fractional tumor volume (FTV): Velcade alone, dosed days 1, 4, 8 and 11
MOLP-8 tumor xenografts = conditions: 450 μg/kg dose; mean time to reach 160 mm^3 minus control
[4] = tested on: CD56-positive multiple myeloma; conditions: 1 patient each at 60, 90 and 112 mg/m^2/week; heavily pretreated; cited from earlier work
[5] = Velcade 1 mg/kg days 1, 4, 8, 11

Question: For COc1cc2cc(c1Cl)N(C)C(=O)C[C@H](OC(=O)[C@H](C)N(C)C(=O)CCS)[C@]1(C)O[C@H]1[C@H](C)[C@@H]1C[C@@](O)(NC(=O)O1)[C@H](OC)/C=C/C=C(\C)C2 [DM1, N^2-deacetyl-N^2-(3-mercapto-1-oxopropyl)-maytansine], which “cytotoxicity relative to maytansine” value ([1]; more cytotoxic than maytansine) is on record?
Answer: 3- to 10 fold

Question: Which “effect on tumor growth” value [2] does the source give for COc1cc2cc(c1Cl)N(C)C(=O)C[C@H](OC(=O)[C@H](C)N(C)C(=O)CCC(C)(C)S)[C@]1(C)O[C@H]1[C@H](C)[C@@H]1C[C@@](O)(NC(=O)O1)[C@H](OC)/C=C/C=C(\C)C2 [DM4, N^2′-deacetyl-N^2′-(4-methyl-4-mercapto-1-oxopentyl)-maytansine, reference compound] here?
Answer: did not cause any significant inhibition of tumor growth

Question: With Nc1cccc2c1CN(C1CCC(=O)NC1=O)C2=O (centres unmarked) [Lenalidomide] as the molecule, how does the “estimate of synergy, drug combined with BT062” value (from here on “estimate of synergy”) (RPMI 8226) read?
Answer: Synergistic

Question: For O=C1CCC(N2C(=O)c3ccccc3C2=O)C(=O)N1 (stereo not drawn) [Thalidomide, α-(N-phthalimido) glutarimide], which “estimate of synergy” value (MOLP8) is on record?
Answer: antagonistic effect

Question: Which “estimate of synergy” value (MOLP8; listed as Bortezomib) does the source give for CC(C)C[C@H](NC(=O)[C@H](Cc1ccccc1)NC(=O)c1cnccn1)B(O)O [Velcade, reference compound] here?
Answer: Slightly antagonistic

Question: And the “estimate of synergy” value (MOLP8; listed as bortezomib)?
Answer: antagonistic effect

Question: And the “effect on tumor volume” value ([3]; VELCADE treatment alone (FIG. 29))?
Answer: no effect on the tumor volume

Question: And the “(T-C)” value [3, 5]?
Answer: 0.5 days

Question: And the “Regressions Complete” value [3, 5]?
Answer: 0/6

Question: What about the “Regressions Partial” value [3, 5] of the same molecule?
Answer: 0/6

Question: What about the Result [3, 5] of the same molecule?
Answer: Inactive

Question: What about the “T/C (%)” value [3, 5] of the same molecule?
Answer: 100%

Question: What about the “Tumor free survivors day 67” value [3, 5] of the same molecule?
Answer: 0/6

Question: What about the log cell kill [3, 5] of the same molecule?
Answer: 0.0

Question: What about the “Fractional tumor volume (FTV)” value ([3]; day 14) of the same molecule?
Answer: 0.84

Question: And the “Fractional tumor volume (FTV)” value ([3]; day 18)?
Answer: 0.96

Question: What about the “Fractional tumor volume (FTV)” value ([3]; day 21) of the same molecule?
Answer: 0.80

Question: And the “Fractional tumor volume (FTV)” value ([3]; day 25)?
Answer: 0.95

Question: What about the “combination effect with BT062 in xenograft model” value ([3]; day 25, all BT062 dose regimens) of the same molecule?
Answer: synergistic

Question: For COc1cc2cc(c1Cl)N(C)C(=O)C[C@H](OC(=O)[C@H](C)N(C)C(C)=O)[C@]1(C)O[C@H]1[C@H](C)[C@@H]1C[C@@](O)(NC(=O)O1)[C@H](OC)/C=C/C=C(\C)C2 [maytansine], which “cytotoxicity relative to Vinca alkaloids or taxol” value ([1]; higher than anti-cancer drugs in clinical use that affect tubulin polymerization) is on record?
Answer: 200-1000 fold

Question: Which “effect on tumor growth” value [2] does the source give for B-B4-SPP-DM1 [reference compound] here?
Answer: marked delay in tumor growth

Question: With nBT062-DM1 as the molecule, how does the “TGD (tumor growth delay)” value (MOLP-8 tumor xenografts) read?
Answer: 18 days

B1: IMGN901 (conjugate, chains of the INN, looked up)
VH: QVQLVESGGGVVQPGRSLRLSCAASGFTFSSFGMHWVRQAPGKGLEWVAYISSGSFTIYYADSVKGRFTISRDNSKNTLYLQMNSLRAEDTAVYYCARMRKGYAMDYWGQGTLVTVSS
VL: DVVMTQSPLSLPVTLGQPASISCRSSQIIIHSDGNTYLEWFQQRPGQSPRRLIYKVSNRFSGVPDRFSGSGSGTDFTLKISRVEAEDVGVYYCFQGSHVPHTFGQGTKVEIK
modifications: mertansine (DM1) conjugate
Question: Which “patients with confirmed minor response (MR)” value [4] does the source give for B1 here?
Answer: 3 patients
